According to the supplement of paper PMC10307832:

Key:
Test in all cases: relative viability (nuclei count vs DMSO), 5 days (fraction); higher = more cells survive
Linsitinib + Phenformin = compound: C[C@]1(O)C[C@@H](c2nc(-c3ccc4ccc(-c5ccccc5)nc4c3)c3c(N)nccn32)C1 [Linsitinib] + N=C(N)NC(=N)NCCc1ccccc1 [Phenformin] (partner 250 µM)
Outline: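 Dosing by pin tool came one day after lung cancer cell lines were seeded in 1536-well plates, using either one drug or a fixed anchor-drug dose plus five library-drug doses (not always all listed) in √10 steps. After 5 days, nuclei were counted on 4× images. Relative viability is treated-well nuclei count divided by vehicle-well nuclei count, and values are medians of duplicate plates.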

Ispinesib = compound: Cc1ccc(C(=O)N(CCCN)[C@@H](c2nc3cc(Cl)ccc3c(=O)n2Cc2ccccc2)C(C)C)cc1 [Ispinesib]
Outline: (§1)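 A plate was accepted only when its control CV was below 25% and the cells had doubled at least once. Viability is defined from nuclear counts as treated wells divided by vehicle wells, with the median taken across plates. That median covers lung cancer cell lines grown in 1536-well plates, dosed by pinning at five √10-spaced library-drug concentrations, and counted in MetaXpress from 4× Hoechst images after 5 days.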

Linsitinib = compound: C[C@]1(O)C[C@@H](c2nc(-c3ccc4ccc(-c5ccccc5)nc4c3)c3c(N)nccn32)C1 [Linsitinib]
Outline: as §1

Row | Cell Line | relative viability (Linsitinib + Phenformin; first compound 0.01 µM) | relative viability (Linsitinib + Phenformin; first compound 0.03162 µM) | relative viability (Linsitinib + Phenformin; first compound 0.1 µM) | relative viability (Linsitinib + Phenformin; first compound 0.3162 µM) | relative viability (Linsitinib + Phenformin; first compound 1 µM) | relative viability (Ispinesib; 0.001 µM) | relative viability (Ispinesib; 0.003162 µM) | relative viability (Ispinesib; 0.01 µM) | relative viability (Ispinesib; 0.03162 µM) | relative viability (Ispinesib; 0.1 µM) | relative viability (Linsitinib; 0.01 µM) | relative viability (Linsitinib; 0.03162 µM) | relative viability (Linsitinib; 0.1 µM) | relative viability (Linsitinib; 0.3162 µM) | relative viability (Linsitinib; 1 µM) | relative viability (Linsitinib; 1 µM, anchor plate)
1 | NCI-H1666 | 0.539 | 0.394 | 0.534 | 0.314 | 0.511 | 0.997 | 1.05 | 0.953 | 0.79 | 0.508 | 0.975 | 0.983 | 1.04 | 0.755 | 0.747 | 0.878
2 | NCI-H358 | 0.304 | 0.273 | 0.306 | 0.228 | 0.207 | 1.15 | 1 | 1 | 0.528 | 0.313 | 0.86 | 0.978 | 0.9 | 0.809 | 0.522 | 0.749
3 | H3255 | 0.342 | 0.354 | 0.392 | 0.366 | 0.375 | 0.999 | 1.15 | 1.02 | 0.701 | 0.335 | 0.872 | 0.933 | 0.927 | 0.74 | 0.896 | 0.972
4 | NCI-H1563 | 0.68 | 0.647 | 0.658 | 0.834 | 0.621 | 1.13 | 0.97 | 0.938 | 0.927 | 0.772 | 1.03 | 0.924 | 1.09 | 1.3 | 0.93 | 1.22
5 | LCLC-103H | 0.397 | 0.344 | 0.324 | 0.327 | 0.303 | 1.05 | 1.07 | 1.04 | 0.691 | 0.601 | 1.01 | 0.89 | 0.976 | 0.823 | 0.879 | 1.06
6 | NCI-H2347 | 0.391 | 0.534 | 0.385 |  | 0.467 | 1.03 | 1.1 | 1.13 | 0.897 | 0.87 | 1.09 | 1.19 | 0.981 | 0.805 | 0.942 | 0.935
7 | LK-2 | 0.41 | 0.498 | 0.515 | 0.201 | 0.187 | 1.13 | 1.19 | 1.17 | 0.705 | 0.348 | 0.994 | 1.09 | 0.919 | 0.594 | 0.744 | 0.6
8 | HCC-15 | 0.512 | 0.46 | 0.433 |  | 0.292 | 1.08 | 1.07 | 1.09 | 0.473 | 0.197 | 1.07 | 0.887 | 0.984 | 0.383 | 0.675 | 0.89
9 | SW 1573 | 0.359 | 0.335 | 0.311 | 0.244 | 0.203 | 1.01 | 0.973 | 1.1 | 0.666 | 0.343 | 1.04 | 1.01 | 0.98 | 0.796 | 0.723 | 0.801
10 | NCI-H838 | 0.528 | 0.487 | 0.462 |  | 0.395 | 1.05 | 1.03 | 1.08 | 0.747 | 0.343 | 0.975 | 0.905 | 0.906 | 0.493 | 0.667 | 1.06
11 | RERF-LC-KJ | 0.408 | 0.368 | 0.463 | 0.425 | 0.409 | 1.04 | 0.975 | 1.03 | 0.684 | 0.331 | 1 | 1.01 | 0.949 | 0.682 | 0.871 | 0.878
12 | ChaGo-K-1 | 0.527 | 0.515 | 0.499 | 0.332 | 0.457 | 1.05 | 1.06 | 1.12 | 0.91 | 0.354 | 1.04 | 0.962 | 1.02 | 0.681 | 0.882 | 
13 | NCI-H441 | 0.944 | 0.966 | 0.675 | 0.442 | 0.298 | 1.06 | 1.1 | 0.765 | 0.272 | 0.297 | 0.951 | 0.981 | 0.986 | 0.497 | 0.636 | 0.519
14 | NCI-H2170 | 0.432 | 0.379 | 0.364 | 0.24 | 0.348 | 1.03 | 1.05 | 1.08 | 0.599 | 0.253 | 1.02 | 0.962 | 0.939 | 0.746 | 1.02 | 
15 | PC-14 | 0.623 | 0.523 | 0.58 | 0.533 | 0.395 | 1.06 | 1.09 | 0.898 | 0.404 | 0.121 | 0.963 | 0.929 | 0.981 | 0.895 | 0.867 | 0.959
16 | NCI-H2009 | 0.479 | 0.47 | 0.434 |  | 0.367 | 1.03 | 1.02 | 1.04 | 0.606 | 0.481 | 0.974 | 0.994 | 1.06 | 0.669 | 0.979 | 1.18
17 | NCI-H1395 | 0.442 | 0.462 | 0.454 | 0.468 | 0.423 | 0.95 | 1.06 | 0.854 | 0.44 | 0.354 | 0.935 | 0.79 | 1.03 | 0.806 | 0.893 | 1.17
18 | NCI-H1437 | 0.281 | 0.321 | 0.303 | 0.272 | 0.288 | 1.07 | 1.11 | 1.14 | 0.995 | 0.247 | 1.01 | 0.963 | 0.997 | 0.945 | 1.01 | 1.02
19 | NCI-H647 | 0.524 | 0.464 | 0.537 |  | 0.438 | 0.995 | 1.05 | 1.18 | 0.188 | 0.153 | 0.968 | 0.881 | 1.03 |  | 0.859 | 1.18

Row | Cell Line | relative viability (Linsitinib + Phenformin; first compound 0.01 µM) | relative viability (Linsitinib + Phenformin; first compound 0.03162 µM) | relative viability (Linsitinib + Phenformin; first compound 0.1 µM) | relative viability (Linsitinib + Phenformin; first compound 0.3162 µM) | relative viability (Linsitinib + Phenformin; first compound 1 µM) | relative viability (Ispinesib; 0.001 µM) | relative viability (Ispinesib; 0.003162 µM) | relative viability (Ispinesib; 0.01 µM) | relative viability (Ispinesib; 0.03162 µM) | relative viability (Ispinesib; 0.1 µM) | relative viability (Linsitinib; 0.01 µM) | relative viability (Linsitinib; 0.03162 µM) | relative viability (Linsitinib; 0.1 µM) | relative viability (Linsitinib; 0.3162 µM) | relative viability (Linsitinib; 1 µM) | relative viability (Linsitinib; 1 µM, anchor plate)
20 | NCI-H1793 | 0.362 | 0.373 | 0.369 | 0.271 | 0.282 | 0.977 | 1 | 1.19 | 0.69 | 0.201 | 0.867 | 0.906 | 0.917 | 0.757 | 0.682 | 0.903
21 | SK-MES-1 | 0.645 | 0.658 | 0.645 | 0.491 | 0.479 | 1.06 | 1.11 | 1.06 | 0.56 | 0.252 | 0.962 | 1.01 | 1.01 | 0.811 | 0.874 | 1.05
22 | NCI-H2087 | 0.498 | 0.54 | 0.417 | 0.222 | 0.365 | 1.01 | 1.03 | 1.23 | 0.335 | 0.137 | 1.07 | 1.04 | 1.13 | 0.615 | 0.683 | 0.908
23 | BEN | 0.28 | 0.24 | 0.245 |  | 0.292 | 1.12 | 1.1 | 0.983 | 0.647 | 0.378 | 0.945 | 0.948 | 0.832 | 0.657 | 0.933 | 0.935
24 | NCI-H3122 | 0.378 | 0.352 | 0.309 |  | 0.335 | 1.09 | 1.06 | 1.01 | 0.779 | 0.172 | 0.99 | 0.947 | 1 | 0.575 | 1.02 | 1.01
25 | LCLC-97TM1 | 0.41 | 0.432 | 0.43 | 0.194 | 0.205 | 1.02 | 0.964 | 1.18 | 0.6 | 0.132 | 0.901 | 1.01 | 0.99 | 0.329 | 0.477 | 0.186
26 | NCI-H2228 | 0.307 | 0.397 | 0.325 | 0.273 | 0.278 | 1.03 | 1 | 1.38 | 0.688 | 0.344 | 0.882 | 0.873 | 0.768 | 0.752 | 0.746 | 0.741
27 | COR-L23 | 0.434 | 0.414 | 0.467 | 0.347 | 0.469 | 1.11 | 1.04 | 1.19 | 0.512 | 0.171 | 0.975 | 1.04 | 1.07 | 0.911 | 0.998 | 0.89
28 | EMC-BAC-2 | 0.506 | 0.487 | 0.485 | 0.322 | 0.388 | 1.04 | 1.26 | 1.11 | 0.395 | 0.421 | 0.922 | 0.984 | 0.931 | 0.725 | 0.602 | 0.833
29 | NCI-H1944 | 0.217 | 0.259 | 0.192 | 0.165 | 0.159 | 1.02 | 0.997 | 1.07 | 0.425 | 0.306 | 1.03 | 1.08 | 0.949 | 0.579 | 0.535 | 1.2
30 | A-427 | 0.383 | 0.321 | 0.301 |  | 0.233 | 1.05 | 1.11 | 0.955 | 0.261 | 0.246 | 1.02 | 1.11 | 0.985 |  | 0.858 | 1.13
31 | NCI-H520 | 0.567 | 0.53 | 0.607 |  | 0.547 | 0.977 | 0.997 | 0.903 | 0.341 | 0.251 | 0.97 | 0.948 | 1.06 |  | 1.02 | 0.951
32 | NCI-H650 | 0.443 | 0.484 | 0.432 | 0.337 | 0.364 | 1.01 | 1.14 | 1.02 | 0.629 | 0.212 | 0.889 | 0.996 | 0.875 |  | 0.783 | 0.914
33 | COR-L 105 | 0.554 | 0.451 | 0.49 | 0.478 | 0.406 | 1.1 | 0.901 | 0.766 | 0.397 | 0.34 | 0.884 | 0.864 | 0.875 | 0.709 | 0.761 | 0.96
34 | NCI-H1755 | 0.66 | 0.64 | 0.629 | 0.372 | 0.503 | 0.972 | 1.1 | 1.1 | 0.745 | 0.351 | 0.976 | 1.01 | 1.01 | 0.769 | 0.915 | 0.996
35 | NCI-H2085 | 0.763 | 0.723 | 0.727 | 0.663 | 0.574 | 1.02 | 1.02 | 1.06 | 0.854 | 0.536 | 0.93 | 1 | 1.05 | 0.915 | 0.906 | 0.888
36 | NCI-H2023 | 0.382 | 0.349 | 0.464 | 0.296 | 0.297 | 1.08 | 0.961 | 1.06 | 0.387 | 0.177 | 0.912 | 0.668 | 0.949 | 0.649 | 0.618 | 0.687
37 | HOP-62 | 0.663 | 0.718 | 0.677 |  | 0.61 | 1.06 | 1.07 | 1.26 | 0.967 | 0.338 | 1 | 1.07 | 1.09 |  | 0.791 | 1.02
